We go through 2 compounds from paper PMC8414802, “Hair Cell Generation in Cochlear Culture Models Mediated by Novel γ-Secretase Inhibitors” (Frontiers in Cell and Developmental Biology, 2021).

Data set [1] concerns Notch-dependent expression of ATOH1 in LS174T cells. Kind of data set: ATOH1 expression induction in LS174T cell line by GSIs (RT-PCR). In kind it is cell-based, human. The conditions noted are these: GSI treatment 72 h, fold-change vs 0.05% DMSO, read-out: IC50 for ATOH1 expression upregulation. How it is done: The human colon cancer cell line LS174T (CL-188; ATCC) was cultured without antibiotics in 1% FBS/Eagle’s Minimum Essential Medium (MEM; Thermo Fisher) ([Asakura et al., 2018]). […]
(§1) Cells or tissue were lysed using RLT Lysis Buffer (Qiagen) and high purity RNA was prepared on the MagNA Pure instrument using MagNA Pure 96 Cellular RNA LV Kit (Roche). Reagents from Thermo Fisher were used for cDNA synthesis by reverse transcription using random hexamers. Resulting cDNA was RNAse H treated and amplified by TaqMan GEX mastermix and PCR primers and probes for human ATOH1 (Hs00944192_s1) and TBP (Hs00427620_m1), mouse Tbp (Mm00446971_m1), Atoh1 (Mm00476035_s1), Hes5 (Mm00439311_g1), Pouf4s (Mm04213795_s1), and Myo7a (Mm01274015_m1) on the Applied Biosystems QuantStudio 7 Flex Real-Time PCR System. Normalized to Tbp, relative gene expression fold-change was quantified and compared between experimental and control conditions by ΔΔCt calculation.
Statistical analysis was performed with GraphPad Prism software (Prism9; GraphPad Software Inc., San Diego, CA, United States). For explant cultures, when the number of explants/replicates was not sufficient to test for Gaussian distribution normal distribution of the data was assumed based on previous experiments ([Perny et al., 2017]; [Erni et al., 2019]). Alternatively, the distribution of the datasets was tested by D’Agostino and Pearson normality test. Unpaired t-tests were used to compare parametric data sets of two groups. Welch’s correction was applied if variances were not equal. For non-parametric data, the Mann–Whitney test was adopted. One-way ANOVA was used to determine the difference in means among multiple groups and multiple comparison correction was tested. Graphs indicate the single data point, the mean values ± standard deviation. IC50s were calculated by non-linear regression of data normalized by percent change from controls to compare multiple experiments. Differences in IC50s from Best fit data were compared by Least Squares (F-test; Extra sum of squares; alpha = 0.05).
To measure the relative potency between different GSIs, a pharmacological assay was initially used to identify the dose ranges effective to induce ATOH1 expression. The cell line LS174T, a human colorectal adenocarcinoma, was used to evaluate Notch-dependent expression of ATOH1 ([Kazanjian et al., 2010]). Two compounds from Eli Lilly, designated LY3056480 (CPD3) and LY3056359 (CPD8) (Figures 1A,B) were compared with the commercially available GSIs LY411575 and DAPT. […] The intermediate potency of CPD3 and 8 was likely to be adequate to achieve levels above the IC50 after dilution into perilymph in the inner ear.

In data set [2] the test system is Atoh1, Pou4f3, Myo7a expression in otic spheres. Kind of data set: Otic sphere assay, hair cell gene expression. In kind it is cell-based, mouse. The protocol:
The generation of otic spheres followed previously described protocols ([Oshima et al., 2009]) with modifications during differentiation phase to test GSIs. Briefly, OCs were dissociated and single cells were deposited in ultralow-cluster plates (Corning) and expanded in “full otic medium” consisting of DMEM/F12, supplemented with N2, B27 (Thermo Fisher), EGF (20 ng/ml; Chemicon), bFGF (10 ng/ml; Chemicon), IGF-1 (50 ng/ml; Chemicon), and heparan sulfate (50 ng/ml; Sigma-Aldrich). After culturing for 3–4 days at 37°C, spheres were collected, plated in cell culture-treated 96 well-plate and cultured in DMEM/F12, supplemented with N2, B27 with/without GSIs for 7 days after which they were lysed for RNA extraction.
as §1
CPD3 and CPD8 were further compared for their potency to induce hair cell gene expression in otic sphere assays ([Oshima et al., 2009]). Cells were first expanded in presence of growth factors, and in a second step differentiated by growth factor removal and GSI treatment. […] This indicated a modest advantage of CPD3 in eliciting expression of the early hair cell marker Atoh1, but similar potency on expression of some later markers of HC differentiation, Pou4f3 and Myo7a (Figure 2A). From the results of two screening assays, CPD3 was selected for additional characterization studies based on its lower IC50 to induce Atoh1/ATOH1 expression in the otic spheres and LS174T cells, respectively.

Data set [3] can be described thus: Inner ear pharmacokinetics after transtympanic administration (perilymph, plasma; LC-MS/MS). In kind it is in vivo, guinea pig. As to conditions: 10% POX, sampled at 0.5, 1 and 6 h post-dosing. How it is done: Female albino Hartley guinea pigs, 250 g, from Charles River (France), housed in macrolon cages (2/cage; Innocage Rat Static-Innovive, Paris) with filter air, were maintained at 22 ± 2°C on a 12-h light cycle with standard A04C (UAR) diet and water “ad libitum.” Lgr5-GFP mice containing an EGFP-IRES-CreERT2 knock-in allele at the Lgr5 locus were obtained from the Jackson Labs (Stock 008875, C57BL/6J/RccHsd background). Atoh1-nGFP transgenic mice (C57Bl/6J background) were from Jane Johnson ([Lumpkin et al., 2003]). Wistar rats were obtained from Charles River.
γ-secretase inhibitors pharmacokinetic studies tested CPD3, CPD8 (Eli Lilly) or LY411575 (Stemcell Technologies) each formulated at 3.4 mg/ml in the following vehicles, 10% Poloxamer 338 (Sigma), 20% Poloxamer 338, 70% PEG400 (Sigma) or 1% hyaluronic acid (HA-700; Lifecore, Chaska, MN, United States) all prepared with PBS (pH 6.2). A single 70 μl injection of the formulated compound (total dose, 870 μg/kg) was delivered to the middle ear space of isoflurane-anesthetized guinea pigs by transtympanic administration. Perilymph from treated animals (perilymph volumes, >2 μl) was collected at time points up to 48 h post-administration (CILcare, Montpellier, France). Briefly, concentrations of each compound in perilymph and plasma, as well as controls prepared in artificial perilymph, were measured by LC-MS/MS on an AB Sciex, API 4000 mass spectrometer using an Onyx C18 5 μm 50^∗2.0 mm separation column (Oroxcell, Romainville, France).
To verify this, in vivo compound concentrations were measured in perilymph of guinea pigs after intratympanic delivery of GSIs into the middle ear. Initially, four vehicle formulations, with different physical properties, were tested, poloxamer 338 (POX; at 10% or 20%), hyaluronic acid (HA), or polyethylene glycol 400 (PEG). For this comparison only one GSI was prepared in each formulation (CPD3, 3.4 mg/ml) and a single dose was injected into the middle ear. Perilymph and plasma were sampled for 48 h (Figure 1D). […] Next, using only 10% POX as vehicle, inner ear adsorption was compared between CPD3, CPD8, and LY411575 by transtympanic injections (Figure 1D, inset). […] Each compound achieved levels several folds above their respective IC50s. The mean maximal perilymph concentration of CPD3 at 0.5 h post-dosing was 85,489 ng/ml (183 μM), then declined at 1 h to 12,928 ng/ml (27.7 μM), and at 6 h to 12,652 ng/ml (27.1 μM). GSIs in plasma samples were not detected (data not shown).

Data set [4] has as its system hair cell genes Atoh1, Pou4f3, Myo7a in OC explants. Kind of data set: Hair cell gene expression in organ of Corti explants (RT-PCR). It is filed as cell-based, mouse. As to conditions: 5 μM, 4 days, vs DMSO. The protocol: OC explants were isolated from postnatal day 2 (P2) Wistar rats, P0-P2 mice (Lgr5-GFP or Atoh1-nGFP mice). Dissection of the cochlea under a stereomicroscope (Nikon SMZ800, Japan) allowed OC separation from stria vascularis and modiolus, and the sensory epithelium was plated with hair cells facing up on Cell-Tak (Corning, United States)-coated transwell-clear inserts (6-well format, 0.4 μm pore, Corning, United States). Dissection medium was exchanged for 1.5 ml full otic medium supplemented with 10% FBS (Invitrogen) and 0.01% Ampicillin (Sigma), added under the insert membrane, maintaining the OC under a thin film of medium during culture at 37°C. 5-ethyl-2′-deoxyuridine (EdU, 5 μM, Life Technologies) was added directly in the medium when indicated.
Concentrations of small molecule GSIs {LY411575, CPD3, CPD8, DAPT (N-[N-(3,5-Difluorophenacetyl)-L-alanyl]-S-phenylglycine t-butyl ester; Sigma)} were prepared in DMSO and are indicated in Figure Legends and Results. DMSO included as Control. Treatment groups were assigned randomly.
as §1
FIGURE 2 GSI-mediated induction of hair cell gene expression and de novo generation of hair cells in the neonatal cochlear sensory epithelium. (A) Gene expression changes of Atoh1, Pou4f3, and Myo7a in response to Notch pathway inhibition by CPD3 (solid lines, triangles) and CPD8 (dashed lines, open square) in otic spheres. Gene expression is reported as fold-change relative to carrier control-treated (DMSO, 0.05%). (n = 9–12). […] (B) Gene expression analysis for the hair cell genes Atoh-1, Myo7a, and Pou4f3. DMSO control n = 13, CPD3 n = 12, LY411575 n = 9, DAPT n = 6 from 2–4 independent experiments. OC explants were cultured for 4 days with/without GSI prior to lysis and analysis. One-way ANOVA with Dunnett’s multiple comparison test, each condition compared to DMSO control. (*p < 0.05, **p < 0.005, ***p < 0.001). (C) Cell counts of Atoh1 positive HCs (OHC left, IHC right) in the mouse cochlear sensory epithelium in the mid-apex region after 7 days in culture with different γ-secretase inhibitors. One-way ANOVA Dunnett’s multiple comparison test, each condition compared to DMSO control. (*p < 0.05; n = 3–5 independent experiments). (D) Quantification of Pou4f3 positive HCs (OHC left, IHC right) in the cochlear sensory epithelium from P2 rats in the apical domain after 8 days in culture with different γ-secretase inhibitors. One-way ANOVA with Dunnett’s multiple comparison test, each condition compared to DMSO control (*p < 0.05, n = 3). Representative immunohistological images of the apical domain after 8 days incubation (inset). scale bar = 20 μm. (E) Quantification of Pou4f3 positive OHCs in the apex, middle and basal domain of organ of Corti explants from rats after 4 days of CPD3 treatment compared to DMSO (*p < 0.05, unpaired t-test) n = 4–6 explants from 2 independent experiments.

Molecules are shown by their SMILES. Like-named read-outs stand apart in the source and are kept apart here.

In general, IC50 refers to the concentration at which inhibition is half-maximal. Turning to `C[C@H](NC(=O)CCC(F)(F)F)C(=O)N[C@@H]1C(=O)C=C2N(CCC2(C)C)c2ncccc21` [CPD8], the half-maximal inhibitory concentration (IC50) in data set [1] (Homo sapiens) was determined as 62 nM; in data set [2] (Mus musculus, 168 h, 7 days differentiation with GSI, read-out: IC50 for Atoh1 upregulation), 303 nM. Besides, the “Induction of Atoh1, Pou4f3 and Myo7a expression” value in data set [2] (dose-responsive, p < 0.05) was “significantly induced”. The Perilymph concentrations quantifiable entry in data set [3] is recorded as “quantifiable at all time points”.

Regarding `C[C@H](NC(=O)Cc1cc(F)cc(F)c1)C(=O)N[C@H](C(=O)OC(C)(C)C)c1ccccc1` [DAPT, N-[N-(3,5-Difluorophenacetyl)-L-alanyl]-S-phenylglycine t-butyl ester], the IC50 in data set [1] was 1400 nM. In data set [4], the Atoh1 expression is reported as 2.36 ± 0.39 fold, the Myo7a expression is reported as 1.59 ± 0.21 fold and the Pou4f3 expression turned out to be 2.14 ± 0.36 fold.
